The results in this text go back to US9119780B2, “Triggerable compositions for two-stage, controlled release of proactive chemistry” (Kimberly-Clark Worldwide, Inc., priority 2013, dated 2015).

For the data set the following is noted: exposure to liquid water under ambient conditions.

Source text: The relative hydrophobicity and hydrophilicity of the R groups can be easily adjusted to tailor the hydrolysis rate upon exposure to aqueous medium, and therefore the release rate of the active R*OH.

For the compound `CC1CCC(C(C)C)C(OC(=O)c2ccc[n+](C)c2)C1.[Cl-]` (centres unmarked), the hydrolysis rate entry was “hydrolyzed rapidly”.
As for `Cc1ccc(C(C)C)c(OC(=O)c2ccc[n+](C)c2)c1.[Cl-]`, the hydrolysis rate result was “hydrolyzed rapidly”.
